Laboratory results taken from article PMC11172862, “Mechanistic and Structural Insights on Difluoromethyl-1,3,4-oxadiazole Inhibitors of HDAC6” (International Journal of Molecular Sciences, 2024).
Read-outs that look alike come from different tables or passages of the source.

Legend:
[1] = target: T1, zHDAC6-CD2 (Danio rerio, UniProt F8W4B7); assay: LC-MS time course of DFMO hydrolysis by zHDAC6-CD2; type: biochemical, zebrafish; settings: absence of competitor
T1 construct: 8xHis-MBP (TEV-cleavable) (N, cleaved yes); made in house; host or cells: E. coli
T1 sequence (F8W4B7 440-798): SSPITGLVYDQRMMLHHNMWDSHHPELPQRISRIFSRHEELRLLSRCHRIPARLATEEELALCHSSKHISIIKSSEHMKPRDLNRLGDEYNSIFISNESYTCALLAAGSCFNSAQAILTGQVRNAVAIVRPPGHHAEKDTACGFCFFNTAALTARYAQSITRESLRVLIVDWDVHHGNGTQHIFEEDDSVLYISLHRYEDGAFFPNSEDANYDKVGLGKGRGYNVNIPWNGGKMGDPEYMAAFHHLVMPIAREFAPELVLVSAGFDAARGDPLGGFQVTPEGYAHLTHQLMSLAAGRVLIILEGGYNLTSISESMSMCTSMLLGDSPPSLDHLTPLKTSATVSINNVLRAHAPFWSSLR
Method: In order to achieve a fast and sufficient conversion of DFMO to DFAcH before the addition of the competitor, and to minimize its effect on the first hydrolysis step, ITF3756 was added after a very short DFMO–enzyme pre-incubation (1 min). Subsequently, at each time point (Figure 4), an aliquot of the reaction mixture was mixed with acetonitrile to unfold the protein and quench the enzymatic activity. Each aliquot was analyzed by liquid LC-MS to determine the compound concentrations.
Experiments like those shown in panel A and C were carried out in the presence of 100 μM ITF3756, which was added after 1 min of ITF5924-enzyme (B) or ITF7209-enzyme (D) pre-incubation. All the experiments were carried out in triplicate. The lines simply join the average values of the experimental points. The incomplete recovery could be attributed to the relatively high enzyme concentration, possibly resulting in coprecipitation phenomena upon the addition of acetonitrile. […]
(§1) obtained in the absence of inhibitor. Such inhibition data were fitted in the GraphPad Prism software (version 10.2.2, La Jolla, CA, USA) using nonlinear regression analysis.
(§2) Eq. 1 P = v௦ ∙t + (vi − vs )[1 − exp(−kobs ∙t)] / kobs
(§3) In Eq. 1, P is the product concentration, expressed as fluorescence intensity, and t is the reaction time (in minutes) (7). For the determination of IC50 values, vo for fast-on inhibitors or vs for slow-on compounds were used to calculate the inhibition, as percentage with respect to the value obtained in the absence of inhibitor. Such inhibition data were fitted in GraphPad Prism software (version 10.2.2, La Jolla, CA, USA) using nonlinear regression analysis. […]
(§4) kobs values on inhibitor concentration was used to determine the mechanism of inhibition. “One-step” or a “two-step” (or “induced-fit) processes are the most common mechanisms of slow binding inhibition (Figure S2) and the resulting “kobs plots” should be linear for mechanism A and hyperbolic […]

[2] = target: T2, second catalytic domain of zebrafish HDAC6 (zHDAC6-CD2) (Danio rerio, UniProt F8W4B7); design: method as in PMID 36528061; settings: included for comparison; ref [22]; read-out: HDACs IC50, zHDAC6-CD2; cited from earlier work
T2 construct: 8xHis-MBP (TEV-cleavable) (N, cleaved yes); made in house; host or cells: E. coli
T2 sequence (F8W4B7 440-798): T1 sequence (F8W4B7 440-798)

[3] = target: T3, Human HDAC1 (Homo sapiens, UniProt Q13547); design: method as in PMID 36528061; settings: included for comparison; ref [22]; read-out: HDACs IC50, HDAC1; cited from earlier work
T3 construct: purchased BPS Bioscience 50051
T3 sequence (Q13547 whole entry): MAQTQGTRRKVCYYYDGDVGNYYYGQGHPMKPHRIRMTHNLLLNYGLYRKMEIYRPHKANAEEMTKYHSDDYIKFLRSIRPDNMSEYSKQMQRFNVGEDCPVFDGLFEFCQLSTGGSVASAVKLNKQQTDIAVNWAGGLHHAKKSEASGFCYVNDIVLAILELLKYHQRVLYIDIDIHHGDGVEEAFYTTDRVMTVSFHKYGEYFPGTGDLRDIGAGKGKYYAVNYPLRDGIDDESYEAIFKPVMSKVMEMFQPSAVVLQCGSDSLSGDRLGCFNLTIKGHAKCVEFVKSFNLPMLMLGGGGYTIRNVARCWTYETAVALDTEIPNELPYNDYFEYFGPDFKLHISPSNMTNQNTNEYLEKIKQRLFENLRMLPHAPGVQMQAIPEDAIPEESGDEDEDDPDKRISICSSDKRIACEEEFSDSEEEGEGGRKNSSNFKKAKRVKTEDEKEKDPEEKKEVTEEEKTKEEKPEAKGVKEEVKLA

[4] = target: T4, human HDAC6 (Homo sapiens, UniProt Q9UBN7); design: method as in PMID 36528061; settings: included for comparison; ref [22]; read-out: HDACs IC50, HDAC6; cited from earlier work
T4 construct: purchased BPS Bioscience 50006
T4 sequence (Q9UBN7 1-1215): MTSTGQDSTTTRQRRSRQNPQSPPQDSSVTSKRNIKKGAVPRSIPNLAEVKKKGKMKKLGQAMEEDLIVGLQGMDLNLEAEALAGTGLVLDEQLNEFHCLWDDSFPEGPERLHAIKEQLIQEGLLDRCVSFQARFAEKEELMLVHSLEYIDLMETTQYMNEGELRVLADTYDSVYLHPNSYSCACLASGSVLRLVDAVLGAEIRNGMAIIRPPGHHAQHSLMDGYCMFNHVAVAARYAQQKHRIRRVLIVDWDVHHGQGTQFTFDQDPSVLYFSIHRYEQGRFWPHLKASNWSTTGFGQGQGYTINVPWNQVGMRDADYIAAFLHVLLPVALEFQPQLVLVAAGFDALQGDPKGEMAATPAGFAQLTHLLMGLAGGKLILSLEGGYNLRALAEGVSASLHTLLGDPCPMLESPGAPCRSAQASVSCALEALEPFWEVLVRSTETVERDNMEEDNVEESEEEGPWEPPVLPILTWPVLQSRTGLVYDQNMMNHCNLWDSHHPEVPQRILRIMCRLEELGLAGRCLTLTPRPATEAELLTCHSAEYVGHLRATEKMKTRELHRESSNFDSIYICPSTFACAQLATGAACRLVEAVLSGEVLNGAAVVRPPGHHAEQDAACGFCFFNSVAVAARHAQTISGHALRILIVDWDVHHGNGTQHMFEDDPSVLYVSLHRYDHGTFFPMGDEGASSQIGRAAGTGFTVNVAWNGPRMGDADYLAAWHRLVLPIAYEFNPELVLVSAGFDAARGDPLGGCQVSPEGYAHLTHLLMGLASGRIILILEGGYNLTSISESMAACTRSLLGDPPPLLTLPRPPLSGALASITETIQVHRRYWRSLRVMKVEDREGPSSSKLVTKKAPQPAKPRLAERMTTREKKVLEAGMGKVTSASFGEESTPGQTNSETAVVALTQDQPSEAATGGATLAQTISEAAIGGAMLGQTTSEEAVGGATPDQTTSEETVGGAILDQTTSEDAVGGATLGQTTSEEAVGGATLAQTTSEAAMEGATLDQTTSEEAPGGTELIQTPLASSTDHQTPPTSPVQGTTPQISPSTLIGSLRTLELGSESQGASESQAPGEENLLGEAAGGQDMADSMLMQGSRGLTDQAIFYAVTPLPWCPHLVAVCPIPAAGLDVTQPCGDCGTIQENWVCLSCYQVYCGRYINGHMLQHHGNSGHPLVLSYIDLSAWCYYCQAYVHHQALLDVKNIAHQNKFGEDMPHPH

[5] = target: T4, human HDAC6; assay: Fluorometric HDAC activity assay (Fluor de Lys Green), human full-length HDAC6; type: biochemical; settings: for IC50: human full-length HDAC6, 25 °C, 3 µM Fluor de Lys Green, read-out: HDACs IC50, HDAC6
Method: (§5) Optimized fluorometric enzymatic assays were used as previously reported (5, 6). Briefly, the time-course of the reaction was monitored at 25 °C in HDAC assay buffer [25 mM Tris/HCl, pH 8.0, 130 mM NaCl, 0.05% Tween-20, 10% Glycerol, 1 mg/mL bovine serum albumin (BSA), 0.5 mM tris(2-carboxyethyl)phosphine (TCEP) and 1% DMSO]. Human HDAC1 (Catalog 50051, BPS Bioscience, San Diego, CA, USA), human HDAC6 (Catalog 50006, BPS Bioscience, San Diego, CA, USA) and the second catalytic domain of zebrafish HDAC6 (zHDAC6-CD2) were used at catalytic concentrations of 710 pM, 62.5-125 pM and 0.12 nM, respectively. The Fluor de Lys Green substrate (Enzo Life Sciences, Farmingdale, New York, USA) was included at a concentration close to the Km value, 3 µM for HDAC6 forms and 25 µM for HDAC1. For fast binding inhibitors, the initial velocity (vo) was calculated as (∆F/min) from the slope of the straight line fitting the data points. In the case […]
velocity (vi), the steady-state velocity at long reaction times (vs), and the apparent first-order rate constant (kobs). In Eq 1, P is the product concentration, expressed as fluorescence intensity and t is the reaction time (in minutes) (7). All progress curves are generated by using GraphPad Prism software (version 10.2.2, La Jolla, CA, USA). For IC50 determination, vo for fast-on inhibitors or vs for slow-on compounds were used to calculate the inhibition, as percentage with respect to the value […]
as §1, §2, §3, §4
to equation 2, assuming the validity of mechanism B, where Ki is the dissociation constant of the […]

[6] = target: T2, second catalytic domain of zebrafish HDAC6 (zHDAC6-CD2); assay: Fluorometric HDAC activity assay (Fluor de Lys Green), zHDAC6-CD2; type: biochemical; settings: for IC50: 25 °C, 3 µM Fluor de Lys Green, read-out: HDACs IC50, zHDAC6-CD2
Method: as §5
velocity (vi), the steady-state velocity at long reaction times (vs), and the apparent first-order rate constant (kobs). In Eq 1, P is the product concentration, expressed as fluorescence intensity and t is the reaction time (in minutes) (7). All progress curves are generated by using GraphPad Prism software (version 10.2.2, La Jolla, CA, USA). For IC50 determination, vo for fast-on inhibitors or vs for slow-on compounds were used to calculate the inhibition, as percentage with respect to the value
(1 picture or pasted object on this page, not shown here) […]
as §1, §2, §3, §4
to equation 2, assuming the validity of mechanism B, where Ki is the dissociation constant of the initial EI complex, whereas k2 and k-2 are the rate constants describing the formation of the tight EI* complex. IC50 reflects the dissociation constant of the EI* complex (Ki*). […]
Samples were kept frozen at -80 °C until the LC-HRMS analysis. The experiment was performed in […]
(ITF6715, ITF7738) and hydrazide (ITF6712, ITF7739) derivatives in the samples was performed with respect to calibration curves obtained with varying concentrations of each compound. Raw data were then imported into GraphPad Prism (version 10.2.2, La Jolla, CA, USA) to generate Figure 4.
The LC-HRMS analysis was carried out using a Vanquish Flex UHPLC (Thermo Fisher Scientific, Waltham, Massachusetts, USA) and a high-resolution mass spectrometer Orbitrap QExactive Focus (Thermo Fisher Scientific, Waltham, Massachusetts, USA), equipped with a Heated Electrospray Ionization, operated in positive mode. A Full Scan analysis was set in the m/z range 50-500 amu. A XSelect HSS T3 50x2.1 mm, 2.5 µm chromatographic column (Waters, Milford, Massachusetts, USA) was used. Mobile phase A consisted of 0.1% formic acid in water and mobile phase B in 0.1% formic acid in acetonitrile. The flow rate was set to 0.5 mL/min, with a gradient program from 3 to 20% B in 3 minutes. The software Chromeleon CDS (version 7.3.2, Thermo Fisher Scientific, Waltham, Massachusetts, USA) was used for acquisition, processing, and signal integration. […]

[7] = target: T3, Human HDAC1; assay: Fluorometric HDAC activity assay (Fluor de Lys Green), human HDAC1; type: biochemical; settings: 25 °C, 25 µM Fluor de Lys Green; read-out: HDACs IC50, HDAC1
Method: as §5
velocity (vi), the steady-state velocity at long reaction times (vs), and the apparent first-order rate constant (kobs). In Eq 1, P is the product concentration, expressed as fluorescence intensity and t is the reaction time (in minutes) (7). […]
In Eq. 1, P is the product concentration, expressed as fluorescence intensity, and t is the reaction time (in minutes) (7). […]

[8] = 5 µM DFMO, 5 µM zHDAC6-CD2, 25 °C

SMILES	IC50 [2] [nM]	IC50 [3] [nM]	IC50 [4] [nM]	IC50 [6] [nM]	IC50 [5] [nM]	IC50 [7] [nM]	other results
FC(F)c1nnc(-c2ccc(Cn3cc(-c4ccc(NC5=NCCN5)cc4)nn3)cc2)o1 [ITF5924]	7.8 ± 0.4	> 100000	7.7 ± 0.3				Time after which DFMO substantially disappeared [1, 8]: 10 min
NNC(=O)c1ccc(Cn2cc(-c3ccc(NC4=NCCN4)cc3)nn2)cc1 [ITF6712]		> 100000	330				Amount of hydrazide product detectable ([1]; hydrolysis of 5 µM ITF5924 by 5 µM zHDAC6-CD2, 25 °C): 13%
O=C(NNC(=O)C(F)F)c1ccc(Cn2cc(-c3ccc(NC4=NCCN4)cc3)nn2)cc1 [ITF6715]	2300	> 100000	1600				
CC(C)(C)c1cn(Cc2ccc(-c3nnc(C(F)F)o3)s2)nn1 [ITF7209]				6.7 ± 0.4			Rate of DFMO consumption compared to ITF5924 [1, 8]: slower rate of DFMO consumption; k2 (rate constant, formation of the tight EI* complex) ([5]; human HDAC6, fit of kobs to Eq. 2): 0.52 ± 0.01 min⁻¹; Mode of inhibition ([5]; human full-length HDAC6, progress curves): slow binding inhibitor; Mode of inhibition ([6]; zHDAC6-CD2, progress curves): slow binding inhibitor; k2 (rate constant, formation of the tight EI* complex) ([6]; zHDAC6-CD2, fit of kobs to Eq. 2): 0.86 ± 0.02 min⁻¹; Ki ([6]; zHDAC6-CD2, fit of kobs to Eq. 2, induced-fit model, read-out: Ki (dissociation constant of the initial EI complex)): 980 ± 40 nM
CC(C)(C)c1cn(Cc2ccc(C(=O)NNC(=O)C(F)F)s2)nn1 [ITF7738]				72000	> 100000	> 100000	
CC(C)(C)c1cn(Cc2ccc(C(=O)NN)s2)nn1 [ITF7739]				1000	5100	> 100000	
